One block for each molecule: values may come before it.
Molecular target: Kv1.5 (Homo sapiens, UniProt P22460)
Assay: Kv1.5 inhibition assay (IKur inhibitor assay per cited references)
Assay type: cell-based
Details: for IC50: read-out: Kv1.5 IC50; for inhibition at 0.3 µM / Kv1.5% inhibition: at 0.3 μM
From the text: Assays to determine the degree of activity of a compound as an IKur inhibitor are well known in the art and are described in references such as J. Gen. Physiol. Apr.; 101 (4):513-43, and Br. J. Pharmacol. 1995 May; 115(2):267-74.

Kv1.5, sequence (P22460 whole entry): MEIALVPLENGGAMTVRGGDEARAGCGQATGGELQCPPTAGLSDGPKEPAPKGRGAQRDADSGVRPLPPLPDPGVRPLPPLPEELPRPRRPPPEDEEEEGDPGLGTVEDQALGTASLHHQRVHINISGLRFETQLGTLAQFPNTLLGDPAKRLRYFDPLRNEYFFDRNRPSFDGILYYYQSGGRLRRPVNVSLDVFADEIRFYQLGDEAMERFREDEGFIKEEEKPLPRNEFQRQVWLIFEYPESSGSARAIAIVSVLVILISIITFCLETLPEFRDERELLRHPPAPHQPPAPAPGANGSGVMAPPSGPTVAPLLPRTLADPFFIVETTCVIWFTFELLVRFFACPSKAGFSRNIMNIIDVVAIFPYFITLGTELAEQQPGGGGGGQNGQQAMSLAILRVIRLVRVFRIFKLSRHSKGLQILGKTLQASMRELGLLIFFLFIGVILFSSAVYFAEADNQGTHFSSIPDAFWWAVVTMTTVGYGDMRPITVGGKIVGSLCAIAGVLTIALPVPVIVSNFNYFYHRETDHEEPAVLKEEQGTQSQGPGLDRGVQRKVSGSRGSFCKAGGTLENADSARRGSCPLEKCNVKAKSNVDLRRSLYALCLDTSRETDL

SMILES: COc1ccc(S(=O)(=O)C2=C(C)Nc3cc(C(F)(F)F)nn3C2c2ccc(C)c(F)c2)cc1 (single isomer, unassigned) [Example 32 Isomer 1, 7-(3-Fluoro-4-methylphenyl)-6-(4-methoxyphenylsulfonyl)-5-methyl-2-(trifluoromethyl)-4,7-dihydropyrazolo[1,5-a]pyrimidine]
- inhibition at 0.3 µM: 81.8%

SMILES: CC1=C(S(=O)(=O)c2ccc(Cl)cc2)C(c2ccc(Cl)c(Cl)c2)n2nccc2N1 (single isomer, unassigned) [Example 2 Isomer 1, 6-(4-Chlorophenylsulfonyl)-7-(3,4-dichlorophenyl)-5-methyl-4,7-dihydropyrazolo[1,5-a]pyrimidine]
- IC50: 92 nM

SMILES: CC1=C(S(=O)(=O)N2CCCC2)C(c2ccc(Cl)c(Cl)c2)n2nc(C)c(Cl)c2N1 (single isomer, unassigned) [Example 69 Isomer 1, 3-Chloro-7-(3,4-dichlorophenyl)-2,5-dimethyl-6-(pyrrolidin-1-ylsulfonyl)-4,7-dihydropyrazolo[1,5-a]pyrimidine]
- inhibition at 0.3 µM: 40%

SMILES: CC1=C(S(=O)(=O)c2ccc(C)cc2)C(c2ccc(Cl)c(Cl)c2)n2nc(C)cc2N1 (single isomer, unassigned) [Example 5 Isomer 2, 7-(3,4-Dichlorophenyl)-2,5-dimethyl-6-tosyl-4,7-dihydropyrazolo[1,5-a]pyrimidine]
- IC50: 131 nM

SMILES: CC1=C(S(=O)(=O)c2ccc(Cl)cc2)C(c2ccccc2)n2nc(C(F)(F)F)cc2N1 (single isomer, unassigned) [Example 35 Isomer 1, 6-(4-Chlorophenylsulfonyl)-5-methyl-7-phenyl-2-(trifluoromethyl)-4,7-dihydropyrazolo[1,5-a]pyrimidine]
- IC50: 277 nM

SMILES: CCCCS(=O)(=O)C1=C(C)Nc2cc(C(F)(F)F)nn2C1c1ccc(Cl)cc1 (single isomer, unassigned) [Example 30 Isomer 2, 6-(Butylsulfonyl)-7-(4-chlorophenyl)-5-methyl-2-(trifluoromethyl)-4,7-dihydropyrazolo[1,5-a]pyrimidine]
- inhibition at 0.3 µM: 77%

SMILES: CC1=C(S(=O)(=O)c2ccc(Cl)cc2)C(C2CCCCC2)n2nc(C(F)(F)F)cc2N1 (single isomer, unassigned) [Example 44 Isomer 1, 6-(4-Chlorophenylsulfonyl)-7-cyclohexyl-5-methyl-2-(trifluoromethyl)-4,7-dihydropyrazolo[1,5-a]pyrimidine]
- IC50: 202 nM

SMILES: CC1=C(S(=O)(=O)NC(C)(C)C)C(c2ccc(Cl)cc2)n2nc(C(F)(F)F)cc2N1 (single isomer, unassigned) [Example 57 Isomer 1, N-tert-Butyl-7-(4-chlorophenyl)-5-methyl-2-(trifluoromethyl)-4,7-dihydropyrazolo[1,5-a]pyrimidine-6-sulfonamide]
- inhibition at 0.3 µM: 48.6%

SMILES: COc1ccc(S(=O)(=O)C2=C(C)Nc3cc(C(F)(F)F)nn3C2c2ccc(Cl)cc2)cc1 (single isomer, unassigned) [Example 25 Isomer 1, 7-(4-Chlorophenyl)-6-(4-methoxyphenylsulfonyl)-5-methyl-2-(trifluoromethyl)-4,7-dihydropyrazolo[1,5-a]pyrimidine]
- inhibition at 0.3 µM: 85.6%

SMILES: CC1=C(S(=O)(=O)NCc2ccccc2)C(c2ccc(Cl)c(Cl)c2)n2nc(C(F)(F)F)cc2N1 (single isomer, unassigned) [Example 56 Isomer 2, N-Benzyl-7-(3,4-dichlorophenyl)-5-methyl-2-(trifluoromethyl)-4,7-dihydropyrazolo[1,5-a]pyrimidine-6-sulfonamide]
- Kv1.5% inhibition: 37.5%

SMILES: CC1=C(S(=O)(=O)c2ccccn2)C(c2ccc(Cl)cc2)n2nc(C(F)(F)F)cc2N1 (single isomer, unassigned) [Example 47 Isomer 2, 7-(4-Chlorophenyl)-5-methyl-6-(pyridin-2-ylsulfonyl)-2-(trifluoromethyl)-4,7-dihydropyrazolo[1,5-a]pyrimidine]
- inhibition at 0.3 µM: 75.8%

SMILES: CC1=C(S(=O)(=O)c2ccccc2)C(c2ccc(F)cc2)n2nc(C(F)(F)F)cc2N1 (single isomer, unassigned) [Example 36 Isomer 2, 7-(4-Fluorophenyl)-5-methyl-6-(phenylsulfonyl)-2-(trifluoromethyl)-4,7-dihydropyrazolo[1,5-a]pyrimidine]
- inhibition at 0.3 µM: 49%

SMILES: COc1ccc(S(=O)(=O)C2=C(C)Nc3cc(C(F)(F)F)nn3C2c2ccc(C)c(F)c2)cc1 (single isomer, unassigned) [Example 32 Isomer 2, 7-(3-Fluoro-4-methylphenyl)-6-(4-methoxyphenylsulfonyl)-5-methyl-2-(trifluoromethyl)-4,7-dihydropyrazolo[1,5-a]pyrimidine]
- Kv1.5% inhibition: 72.7%

SMILES: CC1=C(S(=O)(=O)c2ccc(Cl)cc2)C(CC(C)C)n2nc(C(F)(F)F)cc2N1 (single isomer, unassigned) [Example 45 Isomer 1, 6-(4-Chlorophenylsulfonyl)-7-isobutyl-5-methyl-2-(trifluoromethyl)-4,7-dihydropyrazolo[1,5-a]pyrimidine]
- IC50: 249 nM

SMILES: CC1=C(S(=O)(=O)c2ccc(Cl)cc2)C(c2ccc(Cl)c(Cl)c2)n2nccc2N1 (single isomer, unassigned) [Example 2 Isomer 2, 6-(4-Chlorophenylsulfonyl)-7-(3,4-dichlorophenyl)-5-methyl-4,7-dihydropyrazolo[1,5-a]pyrimidine]
- IC50: 37 nM

SMILES: COc1ccc(S(=O)(=O)C2=C(C)Nc3cc(C)nn3C2c2ccc(C)c(F)c2)cc1 (single isomer, unassigned) [Example 24 Isomer 2, 7-(3-Fluoro-4-methylphenyl)-6-(4-methoxyphenylsulfonyl)-2,5-dimethyl-4,7-dihydropyrazolo[1,5-a]pyrimidine]
- IC50: 322 nM

SMILES: CC1=C(S(=O)(=O)N2CCOCC2)C(c2ccc(Cl)c(Cl)c2)n2nc(C(F)(F)F)cc2N1 (single isomer, unassigned) [Example 66 Isomer 2, 7-(3,4-Dichlorophenyl)-5-methyl-6-(morpholinosulfonyl)-2-(trifluoromethyl)-4,7-dihydropyrazolo[1,5-a]pyrimidine]
- Kv1.5% inhibition: 49%

SMILES: CC1=C(S(=O)(=O)c2ccccc2)C(c2ccc(N3CCCC3)cc2)n2nc(C(F)(F)F)cc2N1 (racemic) [Example 21, 5-Methyl-6-(phenylsulfonyl)-7-(4-(pyrrolidin-1-yl)phenyl)-2-(trifluoromethyl)-4,7-dihydropyrazolo[1,5-a]pyrimidine]
- inhibition at 0.3 µM: 11.1%

SMILES: CC1=C(S(=O)(=O)c2ccccc2)C(c2ccc(F)c(C)c2)n2nc(C(F)(F)F)cc2N1 (racemic) [Example 22, 7-(4-Fluoro-3-methylphenyl)-5-methyl-6-(phenylsulfonyl)-2-(trifluoromethyl)-4,7-dihydropyrazolo[1,5-a]pyrimidine]
- inhibition at 0.3 µM: 30.7%

SMILES: CC1=C(S(=O)(=O)c2ccc(C)cc2)C(c2ccc(Cl)cc2)n2nc(C(F)(F)F)cc2N1 (single isomer, unassigned) [Example 28 Isomer 2, 7-(4-Chlorophenyl)-5-methyl-6-tosyl-2-(trifluoromethyl)-4,7-dihydropyrazolo[1,5-a]pyrimidine]
- Kv1.5% inhibition: 83.4%

Further lines, results first:

- inhibition at 0.3 µM: 71%
SMILES: CCCS(=O)(=O)N(C(=O)C1=C(C)Nc2cc(C(F)(F)F)nn2C1c1ccc(Cl)c(Cl)c1)C1CC1 (racemic) [Example 88, N-Cyclopropyl-7-(3,4-dichlorophenyl)-5-methyl-N-(propylsulfonyl)-2-(trifluoromethyl)-4,7-dihydropyrazolo[1,5-a]pyrimidine-6-carboxamide]

- Kv1.5% inhibition: 27%
SMILES: CCN(C(=O)C1=C(C)Nc2cc(C(F)(F)F)nn2C1c1ccc(Cl)c(Cl)c1)S(=O)(=O)c1ccc(Cl)cc1 (single isomer, unassigned) [Example 93 Isomer 2, N-(4-Chlorophenylsulfonyl)-7-(3,4-dichlorophenyl)-N-ethyl-5-methyl-2-(trifluoromethyl)-4,7-dihydropyrazolo[1,5-a]pyrimidine-6-carboxamide]

- inhibition at 0.3 µM: 41%
SMILES: Cc1nc2cc(C(F)(F)F)nn2c(-c2ccc(Cl)c(Cl)c2)c1C(=O)N(C)S(=O)(=O)c1ccccc1 (racemic) [Example 92, 7-(3,4-Dichlorophenyl)-N,5-dimethyl-N-(phenylsulfonyl)-2-(trifluoromethyl)pyrazolo[1,5-a]pyrimidine-6-carboxamide]

- inhibition at 0.3 µM: 80%
SMILES: CC1=C(C(=O)N(C)S(=O)(=O)c2c(C)noc2C)C(c2ccc(Cl)c(Cl)c2)n2nc(C)cc2N1 (single isomer, unassigned) [Example 94 Isomer 1, 7-(3,4-Dichlorophenyl)-N-(3,5-dimethylisoxazol-4-ylsulfonyl)-N,2,5-trimethyl-4,7-dihydropyrazolo[1,5-a]pyrimidine-6-carboxamide]

- inhibition at 0.3 µM: 72%
SMILES: CCCS(=O)(=O)N(C)C(=O)C1=C(C)Nc2cc(C(F)(F)F)nn2C1c1ccc(Cl)c(Cl)c1 (single isomer, unassigned) [Example 91 Isomer 1, 7-(3,4-Dichlorophenyl)-N,5-dimethyl-N-(propylsulfonyl)-2-(trifluoromethyl)-4,7-dihydropyrazolo[1,5-a]pyrimidine-6-carboxamide]

- Kv1.5% inhibition: 56%
SMILES: CC1=C(C(=O)N(C)S(=O)(=O)C(C)C)C(c2ccc(Cl)c(Cl)c2)n2nc(C(F)(F)F)cc2N1 (single isomer, unassigned) [Example 96 Isomer 2, 7-(3,4-Dichlorophenyl)-N-(isopropylsulfonyl)-N,5-dimethyl-2-(trifluoromethyl)-4,7-dihydropyrazolo[1,5-a]pyrimidine-6-carboxamide]

- Kv1.5% inhibition: 7%
SMILES: CC1=C(C(=O)N2CCCCS2(=O)=O)C(c2ccc(Cl)c(Cl)c2)n2nc(C)cc2N1 (single isomer, unassigned) [Example 84 Isomer 2]

- Kv1.5% inhibition: 88%
SMILES: CC1=C(C(=O)N(C)S(=O)(=O)c2ccccc2)C(c2ccc(Cl)c(Cl)c2)n2nc(C)cc2N1 (single isomer, unassigned) [Example 79 Isomer 2, 7-(3,4-Dichlorophenyl)-N,2,5-trimethyl-N-(phenylsulfonyl)-4,7-dihydropyrazolo[1,5-a]pyrimidine-6-carboxamide]

— patent US7507730B2, “Substituted pyrazolo[1,5-a]pyrimidines as potassium channel activators” (Bristol-Myers Squibb Company, priority 2005, dated 2009)
